“Also recorded” adds a separate entry of the source. Read-outs that look alike come from different tables or passages of the source. Bounds are passed on as bounds.

The target of test [1] is T1, hDAAO holoenzyme (Homo sapiens, UniProt P14920).
T1 construct: made in house; host or cells: E. coli
Put plainly: Ligand binding to hDAAO, protein fluorescence quenching. As to conditions: for Kd: 15°C.

Test [2] addresses T2, hDAAO (Homo sapiens, UniProt P14920).
T2 construct: made in house; host or cells: E. coli
In words: Modulation of hDAAO activity, standard activity assay. The format is biochemical. As to conditions: for effect on hDAAO activity on D-alanine: D-alanine 2 or 28 mM, simultaneous 10 mM magnesium ions and 10 μM nucleotide. Here is the method: The effect of MgCl2 and CaCl2 (1 or 10 mM), of 10 μM ATP or GTP and of both divalent ions and nucleotides was assessed using the standard activity assay.

Test [3] has as its target T2, hDAAO. Put plainly: Oxygen-consumption activity assay, apparent kinetic parameters (substrate specificity). The format is biochemical. The settings on record: for Km / kcat: apparent, 21% oxygen saturation, pH 8.5, 25°C; for oxidation by hDAAO: at 100 and 500 mM final concentration.
Test [4] has as its target T2, hDAAO. Put plainly: Reduction of FAD following anaerobic addition of L-amino acid. The format is biochemical. As for the experimental part:
The ability of L-serine to bind at the hDAAO active site like the corresponding D-enantiomer is further confirmed by the observed reduction of FAD following anaerobic addition of the L-amino acid: 14 μM of hDAAO was reduced by 1 mM L-serine in >60 min.

Test [5] deals with T3, hDAAO apoprotein (Homo sapiens, UniProt P14920).
T3 construct: made in house; host or cells: E. coli
As to conditions: cited from earlier work.

The target in test [6] is T2, hDAAO. As to conditions: cited from earlier work.
Test [7] concerns the target T1, hDAAO holoenzyme. In words: Far-UV CD spectrum of hDAAO in the presence of ions and nucleotides. As to conditions: 1 or 10 mM. As for the experimental part:
Circular dichroism (CD) spectra were recorded using a Jasco J-815 spectropolarimeter (Jasco Co., Cremella, Italy) in 10 mM Tris-HCl, pH 8.0, 1% (v/v) glycerol, and 40 μM FAD. The cell path length was 0.1 cm for measurements in the 200- to 250-nm region (0.1 mg protein/mL) and 1 cm for measurements in the 250–350 nm range (0.4 mg protein/mL) (Caldinelli et al., [2010]).

For test [8], the target named is T2, hDAAO. In words: Inhibition of D-serine oxidation by L-serine. The format is biochemical.
The target of test [9] is T2, hDAAO. As to conditions: cited from earlier work. This is another data set of the same source.
Test [10] concerns the target T2, hDAAO. As to conditions: following enzyme inactivation; ref Kawazoe et al., 2006; cited from earlier work.
Test [11] concerns the target T3, hDAAO apoprotein. In words: FAD binding to hDAAO apoprotein, protein fluorescence quenching. As to conditions: 15°C. Here is the method: Protein fluorescence spectra were measured at 1 μM protein concentration (0.04 mg/mL) in 20 mM Tris-HCl buffer, pH 8.0, 100 mM NaCl, 10% (v/v) glycerol, 5 mM 2-mercaptoethanol, and 40 μM FAD for the holoenzyme and in 50 mM sodium pyrophosphate, pH 8.3 for the apoprotein; spectra were recorded using a Jasco FP-750 instrument and were corrected for the buffer contribution. Protein fluorescence spectra were recorded between 300 and 400 nm, with excitation at 280 nm. […] In all cases, Kd-values were determined using an hyperbolic plot.

The target of test [12] is T3, hDAAO apoprotein. Put plainly: Holoenzyme reconstitution, decrease in flavin fluorescence at 528 nm. In kind it is binding. As for the experimental part:
The holoenzyme reconstitution process was also investigated by adding increasing concentrations of apoprotein to ~1 μM of FAD and following the decrease in flavin fluorescence at 528 nm (excitation at 450 nm).

The mark [13] stands for this setting: apparent, 21% oxygen saturation, pH 8.5, 25°C, ref Molla et al., 2006.
Setting [14] is: apparent, 21% oxygen saturation, pH 8.5, 25°C, ref Frattini et al., 2011.
Where [15] appears, read: at pH 8.3, ref Kawazoe et al., 2007b.
[16] abbreviates: value in brackets, ref Raibekas et al., 2000.

T3 sequence (P14920 whole entry): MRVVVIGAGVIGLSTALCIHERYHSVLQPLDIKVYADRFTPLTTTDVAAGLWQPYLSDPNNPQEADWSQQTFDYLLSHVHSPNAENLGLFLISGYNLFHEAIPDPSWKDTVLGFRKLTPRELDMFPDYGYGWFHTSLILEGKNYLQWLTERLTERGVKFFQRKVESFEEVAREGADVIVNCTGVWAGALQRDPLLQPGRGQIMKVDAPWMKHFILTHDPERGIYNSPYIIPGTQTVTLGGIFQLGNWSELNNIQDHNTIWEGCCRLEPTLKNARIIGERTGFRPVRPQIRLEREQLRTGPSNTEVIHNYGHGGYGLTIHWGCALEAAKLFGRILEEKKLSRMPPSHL
T2 sequence (P14920 whole entry): as above
T1 sequence (P14920 whole entry): as above

Turning to `Nc1ncnc2c1ncn2[C@@H]1O[C@H](COP(=O)(O)OP(=O)(O)OP(=O)(O)O)[C@@H](O)[C@H]1O` [ATP], at hDAAO holoenzyme [1] (up to 20 mM), the “change in protein fluorescence” value was “no change”. Also, the “effect on hDAAO activity on D-alanine” value on hDAAO [2] is on record as “not modified”.

On to `CN[C@H](CC(=O)O)C(=O)O` [N-Methyl-D-aspartate], for which the “change in protein fluorescence” value at hDAAO holoenzyme [1] (up to 50 mM) is “no change”. On hDAAO [3], the Km – broadly, the substrate concentration at which the rate is half of its maximum – was “b. d”; the kcat (as a rule, the number of substrate molecules converted per active site and unit of time at saturation) is “b. d”; the “oxidation by hDAAO” value was “not oxidized”. The “reduction of FAD following anaerobic addition” value on hDAAO [4] (compared with L-serine, not shown) is listed as “not”.

Take `CN(C)CCCN1c2ccccc2Sc2ccc(Cl)cc21` [chlorpromazine]: the “competition with FAD for the binding to hDAAO apoprotein” value on hDAAO apoprotein [5] (ref Iwana et al., 2008, Sacchi et al.) is listed as “compete with FAD”.

As to `Nc1ccccc1C(=O)C[C@@H](N)C(=O)O` [D-Kynurenine], the kcat on hDAAO [3] was 0.09 ± 0.01 s⁻¹. At hDAAO [3] (read-out: Km), the Km worked out at 700 ± 400 µM.

With `O=C(O)[C@H]1CCCN1` [D-Proline], on hDAAO [6] (setting [13]), the Km was 8500 ± 1000 µM and the kcat is 10.2 ± 0.1 s⁻¹.

As to `N[C@H](Cc1c[nH]c2ccccc12)C(=O)O` [D-Tryptophan], on hDAAO [6] (setting [14]), the Km is 1500 ± 100 µM and the kcat was 3.2 ± 0.1 s⁻¹.

For `NCC(=O)O` [Glycine], the turnover number (kcat) at hDAAO [6] (setting [13]) is ~ 0.9 s^−1. In addition, the “change in protein fluorescence” value on hDAAO holoenzyme [1] (up to 50 mM) is reported as “no change”. Also, the “apparent Km, fold higher than physiological concentration” value on hDAAO [3] is on record as ~ 1,000 fold.

For the compound `N[C@H](Cc1ccc(O)c(O)c1)C(=O)O` [D-DOPA, 3,4-dihydroxyphenylalanine], the results for the Km on hDAAO [6] (setting [15]) and at hDAAO [3] (read-out: Km) were 1500 µM and 6000 ± 1300 µM, respectively. The figures for the kcat on hDAAO [6] (setting [15]) and at hDAAO [3] were 21.7 s⁻¹ and ~ 40 s^−1, respectively. Further, the Ki at hDAAO [6] (substrate inhibition effect, at pH 8.3, ref Kawazoe et al., 2007b) was 500 µM; on hDAAO [3] it was 41300 µM.

On to `N[C@H](CC(=O)O)C(=O)O` [D-Aspartate], for which the kcat is 6.7 ± 1.2 s⁻¹ at hDAAO [6] (setting [13]) and 6.7 s⁻¹ at hDAAO [6] (apparent, 21% oxygen saturation, pH 8.5, 25°C, ref Molla et al., 2006, listed as D-aspartate).

With `[Ca+2]` [calcium ions], the “effect on far-UV CD spectrum / protein conformation” value on hDAAO holoenzyme [7] is “slightly modified”.

Consider `N[C@@H](CO)C(=O)O` [L-serine], for which the “time for reduction of hDAAO flavin” value on hDAAO [4] (14 μM hDAAO, 1 mM L-amino acid, anaerobic) was greater than 60 min. Further, at hDAAO [8] (D-serine oxidation at increasing L-serine concentrations), the type of inhibition result is reported as “competitive inhibitor”. Further, on hDAAO [8] (competitive versus D-serine), the Ki is 26200 µM.

Turning to `N[C@H](CO)C(=O)O` [D-Serine], the Km on hDAAO [6] (setting [13]) is 7500 ± 500 µM; at hDAAO [6] (setting [15]), 3900 µM; on hDAAO [6] (setting [16]) it was 1000 µM. Also, the kcat on hDAAO [6] (setting [13]) was 3.0 ± 0.1 s⁻¹; on hDAAO [6] (setting [15]), 4 s⁻¹.

`C[C@@H](N)C(=O)O` [D-Alanine]: at hDAAO [6] (setting [13]), the Km was 1300 ± 200 µM and the kcat is 5.2 ± 0.1 s⁻¹. For the same compound, at hDAAO [6] (setting [16]), the Km is 1000 µM and the kcat was 10 s⁻¹. Also, the specific activity on hDAAO [3] (saturating D-alanine concentration (28 mM), 25°C, pH 8.5, 200 μM FAD) was determined as 9.5 U/mg protein.

In the case of `N[C@H](CCC(=O)O)C(=O)O` [D-Glutamate], on hDAAO holoenzyme [1] (up to 50 mM), the “change in protein fluorescence” value is on record as “no change”. For the same compound, at hDAAO [3], the Km entry was “b. d”, the kcat entry is given as “b. d” and the “oxidation by hDAAO” value is on record as “not oxidized”.

Take `[Mg+2]` [magnesium ions]: on hDAAO holoenzyme [7], the “effect on far-UV CD spectrum / protein conformation” value is “do not modify”. For the same compound, the “effect on hDAAO activity” value on hDAAO [2] (1 or 10 mM final concentration) is “do not modify”.

`O=C(O)c1ccccc1` [benzoate]: the Kd on hDAAO holoenzyme [1] (higher ligand concentrations, ~80% of fluorescence change, read-out: Kd, second saturation) was 2590 ± 680 µM; at hDAAO holoenzyme [1] (low benzoate concentrations (≤ 20 μM), read-out: Kd, first saturation), 0.33 ± 0.04 µM; at hDAAO [9] (CD signal at ~270 nm, ref Caldinelli et al., 2010), 9.5 µM; at hDAAO [9] (formation of a shoulder at 484 nm in the absorbance spectrum, ref Raibekas et al., 2000, Molla et al., 2006), 5 to 7 µM. Also, at hDAAO [10], the Ki was 7 µM.

`Nc1nc2c(ncn2[C@@H]2O[C@H](COP(=O)(O)OP(=O)(O)OP(=O)(O)O)[C@@H](O)[C@H]2O)c(=O)[nH]1` [GTP]: the “effect on hDAAO activity on D-alanine” value on hDAAO [2] was “not modified”.

As to `N[C@H](Cc1ccccc1)C(=O)O` [D-Phenylalanine], at hDAAO [6] (setting [14]), the Km was 2700 ± 200 µM and the kcat was 6.6 ± 0.1 s⁻¹. For the same compound, at hDAAO [6] (setting [15]), the Km was 1200 µM and the kcat is 15.5 s⁻¹.

Consider `CC(=O)N[C@@H](CS)C(=O)O` [L-NAC, N-acetyl-L-cysteine], for which the “effect on hDAAO activity” value on hDAAO [2] (1 or 10 mM, even when added 60 min before the assay) is listed as “does not affect; also recorded: not altered”.

For `Cc1cc2nc3c(=O)[nH]c(=O)nc-3n(C[C@H](O)[C@H](O)[C@H](O)COP(=O)(O)OP(=O)(O)OC[C@H]3O[C@@H](n4cnc5c(N)ncnc54)[C@H](O)[C@@H]3O)c2cc1C` [FAD], the Kd on hDAAO apoprotein [11] (7 μM benzoate, read-out: Kd, first phase) was 0.43 ± 0.02 µM; at hDAAO apoprotein [11] (7 μM benzoate, read-out: Kd, second phase), 19.1 ± 2.8 µM; on hDAAO apoprotein [11] (70 μM benzoate, read-out: Kd, single saturation) it was 0.48 ± 0.02 µM; on hDAAO apoprotein [11] (absence of active-site ligand, read-out: Kd, first phase), 0.43 ± 0.02 µM; at hDAAO apoprotein [11] (absence of active-site ligand, read-out: Kd, second phase), greater than 30 µM; on hDAAO apoprotein [5] (benzoate binding, ref Molla et al., 2006, Caldinelli et al., 2010, read-out: Kd, flavin interaction with benzoate bound), 0.3 µM. The Kd on hDAAO apoprotein [5] (interaction with the flavin cofactor, ref Molla et al., 2006, read-out: Kd) was 8 µM; on hDAAO apoprotein [12] (70 μM benzoate, monophasic, read-out: Kd) it was 0.4 ± 0.04 µM; on hDAAO apoprotein [12] (absence of benzoate, ~1 μM FAD titrated with apoprotein, read-out: Kd, 1), 0.67 ± 0.07 µM; on hDAAO apoprotein [12] (absence of benzoate, ~1 μM FAD titrated with apoprotein, read-out: Kd, 2), 4 ± 0.9 µM. Further, at hDAAO apoprotein [5] (active site ligand such as benzoate, ref Molla et al., 2006), the “fold tighter interaction with FAD in the presence of an active site ligand” value is 20 fold.

Take `N[C@H](Cc1ccc(O)cc1)C(=O)O` [D-Tyrosine]: at hDAAO [6] (setting [15]), the Km was 1100 µM and the kcat was 14.8 s⁻¹.

The values above are taken from article PMC5737116, “Biochemical Properties of Human D-Amino Acid Oxidase” (Frontiers in Molecular Biosciences, 2017).
